# Columns and labels:
# Format in all cases: functional
# [1] = system: K562; assay: Growth inhibition of human K562 cells assessed as cell growth at 10 uM by sulforhodamine B assay; settings: read-out: Activity
# [2] = system: HCT-15; assay: Growth inhibition of human HCT15 cells by sulforhodamine B assay
# [3] = system: SR; assay: Growth inhibition of human SR cells by sulforhodamine B assay
# [4] = system: OVCAR-3; assay: Growth inhibition of human OVCAR3 cells assessed as growth inhibition at 10 uM by sulforhodamine B assay; settings: read-out: GI
# [5] = system: UACC-62; assay: Growth inhibition of human UACC62 cells assessed as growth inhibition at 10 uM by sulforhodamine B assay; settings: read-out: GI
# [6] = system: Malme-3M; assay: Growth inhibition of human MALME-3M cells assessed as growth inhibition at 10 uM by sulforhodamine B assay; settings: read-out: GI
# [7] = system: NCI-H522; assay: Growth inhibition of human NCI-H522 cells assessed as growth inhibition at 10 uM by sulforhodamine B assay; settings: read-out: GI
# [8] = system: NCI-H23; assay: Growth inhibition of human NCI-H23 cells assessed as growth inhibition at 10 uM by sulforhodamine B assay; settings: read-out: GI
# [9] = system: RPMI-8226; assay: Growth inhibition of human RPMI8226 cells assessed as growth inhibition at 10 uM by sulforhodamine B assay; settings: read-out: GI
# [10] = system: CCRF-CEM; assay: Growth inhibition of human CCRF-CEM cells assessed as growth inhibition at 10 uM by sulforhodamine B assay; settings: read-out: GI
# [11] = system: MCF7; assay: Growth inhibition of human MCF7 cells assessed as cell growth at 10 uM by sulforhodamine B assay; settings: read-out: Activity
# [12] = system: TK-10; assay: Growth inhibition of human TK10 cells assessed as cell growth at 10 uM by sulforhodamine B assay; settings: read-out: Activity
# [13] = system: SN12C; assay: Growth inhibition of human SN12C cells assessed as cell growth at 10 uM by sulforhodamine B assay; settings: read-out: Activity
# [14] = Growth inhibition of human NCI-ADR-RES cells assessed as cell growth at 10 uM by sulforhodamine B assay; settings: read-out: Activity
# [15] = system: OVCAR-8; assay: Growth inhibition of human OVCAR8 cells assessed as cell growth at 10 uM by sulforhodamine B assay; settings: read-out: Activity
# [16] = system: OVCAR-3; assay: Growth inhibition of human OVCAR3 cells assessed as cell growth at 10 uM by sulforhodamine B assay; settings: read-out: Activity
# [17] = system: UACC-62; assay: Growth inhibition of human UACC62 cells assessed as cell growth at 10 uM by sulforhodamine B assay; settings: read-out: Activity
# [18] = system: SF-539; assay: Growth inhibition of human SF539 cells assessed as cell growth at 10 uM by sulforhodamine B assay; settings: read-out: Activity
# [19] = system: SF-268; assay: Growth inhibition of human SF268 cells assessed as cell growth at 10 uM by sulforhodamine B assay; settings: read-out: Activity
# [20] = system: HT-29; assay: Growth inhibition of human HT-29 cells assessed as cell growth at 10 uM by sulforhodamine B assay; settings: read-out: Activity
# [21] = Growth inhibition of human HCC2998 cells assessed as cell growth at 10 uM by sulforhodamine B assay; settings: HCC 2998, read-out: Activity
# [22] = system: NCI-H522; assay: Growth inhibition of human NCI-H522 cells assessed as cell growth at 10 uM by sulforhodamine B assay; settings: read-out: Activity
# [23] = system: NCI-H23; assay: Growth inhibition of human NCI-H23 cells assessed as cell growth at 10 uM by sulforhodamine B assay; settings: read-out: Activity
# [24] = Growth inhibition of human EKVX cells assessed as cell growth at 10 uM by sulforhodamine B assay; settings: read-out: Activity
# [25] = system: A549; assay: Growth inhibition of human A549/ATCC cells assessed as cell growth at 10^-8 M by sulforhodamine B assay; settings: read-out: Activity
# [26] = system: MDA-MB-468; assay: Growth inhibition of human MDA-MB-468 cells by sulforhodamine B assay
# [27] = system: T47D; assay: Growth inhibition of human T47D cells by sulforhodamine B assay
# [28] = system: MDA-MB-231; assay: Growth inhibition of human MDA-MB-231 cells by sulforhodamine B assay
# [29] = system: LOX IMVI; assay: Growth inhibition of human LOXIMVI cells by sulforhodamine B assay
# [30] = system: MDA-MB-468; assay: Growth inhibition of human MDA-MB-468 cells assessed as cell growth at 10^-4 M by sulforhodamine B assay; settings: read-out: Activity
# [31] = system: BT-549; assay: Growth inhibition of human BT549 cells assessed as cell growth at 10^-4 M by sulforhodamine B assay; settings: read-out: Activity
# [32] = system: SK-MEL-5; assay: Growth inhibition of human SK-MEL-5 cells assessed as cell growth at 10^-4 M by sulforhodamine B assay; settings: read-out: Activity
# [33] = system: NCI-H522; assay: Growth inhibition of human NCI-H522 cells assessed as cell growth at 10^-4 M by sulforhodamine B assay; settings: read-out: Activity
# [34] = system: NCI-H23; assay: Growth inhibition of human NCI-H23 cells assessed as cell growth at 10^-4 M by sulforhodamine B assay; settings: read-out: Activity
# [35] = system: CCRF-CEM; assay: Growth inhibition of human CCRF-CEM cells assessed as cell growth at 10^-4 M by sulforhodamine B assay; settings: read-out: Activity
# [36] = system: HCT-116; assay: Growth inhibition of human HCT116 cells assessed as cell growth at 10^-6 M by sulforhodamine B assay; settings: read-out: Activity
# [37] = Growth inhibition of human HCC2998 cells assessed as cell growth at 10^-6 M by sulforhodamine B assay; settings: HCC 2998, read-out: Activity
# [38] = system: A549; assay: Growth inhibition of human A549/ATCC cells assessed as cell growth at 10^-6 M by sulforhodamine B assay; settings: read-out: Activity
# [39] = system: UO-31; assay: Growth inhibition of human UO31 cells assessed as cell growth at 10^-7 M by sulforhodamine B assay; settings: read-out: Activity
# [40] = system: NCI-H23; assay: Growth inhibition of human NCI-H23 cells assessed as cell growth at 10^-7 M by sulforhodamine B assay; settings: read-out: Activity
# [41] = system: MOLT-4; assay: Growth inhibition of human MOLT4 cells assessed as cell growth at 10^-7 M by sulforhodamine B assay; settings: read-out: Activity
# [42] = system: MDA-MB-231; assay: Growth inhibition of human MDA-MB-231 cells assessed as cell growth at 10^-8 M by sulforhodamine B assay; settings: read-out: Activity
# [43] = read-out: LC50 (the source's name)
# [44] = read-out: pLC50 (the source's name) (converted)
smiles,measurement,setting,value
CC1(C)C[C@@H](O)[C@]2(C(=O)O)CC[C@]3(C)C(=CC[C@@H]4[C@@]5(C)C/C(=C\C=C\c6ccccc6)C(=O)C(C)(C)[C@@H]5CC[C@]43C)[C@@H]2C1,growth at 10 µM,[1],32.4%
same,GI50,[2]; read-out: GI50,3.22 µM
same,LC50 (50% lethal concentration),[2]; read-out: LC50,45.1 µM
same,TGI,[2]; read-out: TGI,11.9 µM
same,GI50,[2]; read-out: pGI50 (converted),3.24 µM
same,LC50 (50% lethal concentration),[2]; read-out: pLC50 (converted),44.7 µM
same,TGI,[2]; read-out: pTGI (converted),12 µM
same,GI50,[3]; read-out: GI50,2.48 µM
same,CC50,[3]; [43],> 100 µM
same,TGI,[3]; read-out: TGI,6.91 µM
same,GI50,[3]; read-out: pGI50 (converted),2.45 µM
same,CC50,[3]; [44],> 100 µM
same,TGI,[3]; read-out: pTGI (converted),6.92 µM
same,inhibition of growth at 10 µM,[4],42.7%
same,inhibition of growth at 10 µM,[5],49.6%
same,inhibition of growth at 10 µM,[6],15.5%
same,inhibition of growth at 10 µM,[7],52.3%
same,inhibition of growth at 10 µM,[8],40.3%
same,inhibition of growth at 10 µM,[9],84.4%
same,inhibition of growth at 10 µM,[10],80.1%
same,growth at 10 µM,[11],33.8%
same,growth at 10 µM,[12],88.3%
same,growth at 10 µM,[13],45.5%
same,growth at 10 µM,[14],76.2%
same,growth at 10 µM,[15],43%
same,growth at 10 µM,[16],57.3%
same,growth at 10 µM,[17],50.4%
same,growth at 10 µM,[18],91.9%
same,growth at 10 µM,[19],70.7%
same,growth at 10 µM,[20],51.7%
same,growth at 10 µM,[21],82.8%
same,growth at 10 µM,[22],47.7%
same,growth at 10 µM,[23],59.7%
same,growth at 10 µM,[24],39.4%
same,growth at 0.01 µM,[25],98%
same,GI50,[26]; read-out: GI50,3.3 µM
same,CC50,[26]; [43],> 100 µM
same,TGI,[26]; read-out: TGI,12.7 µM
same,GI50,[26]; read-out: pGI50 (converted),3.31 µM
same,CC50,[26]; [44],37.2 µM
same,TGI,[26]; read-out: pTGI (converted),12.6 µM
same,GI50,[27]; read-out: GI50,3.83 µM
same,CC50,[27]; [43],> 100 µM
same,TGI,[27]; read-out: TGI,18.4 µM
same,GI50,[27]; read-out: pGI50 (converted),3.8 µM
same,CC50,[27]; [44],> 100 µM
same,TGI,[27]; read-out: pTGI (converted),18.2 µM
same,GI50,[28]; read-out: GI50,2.02 µM
same,CC50,[28]; [43],12.5 µM
same,TGI,[28]; read-out: TGI,4.68 µM
same,GI50,[28]; read-out: pGI50 (converted),2.04 µM
same,CC50,[28]; [44],12.6 µM
same,TGI,[28]; read-out: pTGI (converted),4.68 µM
same,GI50,[29]; read-out: GI50,1.9 µM
same,CC50,[29]; [43],6.68 µM
same,TGI,[29]; read-out: TGI,3.56 µM
same,GI50,[29]; read-out: pGI50 (converted),1.91 µM
same,CC50,[29]; [44],6.61 µM
same,TGI,[29]; read-out: pTGI (converted),3.55 µM
same,growth at 100 µM,[30],-95%
same,growth at 100 µM,[31],-72%
same,growth at 100 µM,[32],-99%
same,growth at 100 µM,[33],-86%
same,growth at 100 µM,[34],-83%
same,growth at 100 µM,[35],-19%
same,growth at 1 µM,[36],90%
same,growth at 1 µM,[37],108%
same,growth at 1 µM,[38],88%
same,growth at 0.1 µM,[39],94%
same,growth at 0.1 µM,[40],95%
same,growth at 0.1 µM,[41],97%
same,growth at 0.01 µM,[42],108%
CC1(C)C[C@@H](O)[C@]2(C(=O)O)CC[C@]3(C)C(=CC[C@@H]4[C@@]5(C)CC[C@H](O)C(C)(C)[C@@H]5CC[C@]43C)[C@@H]2C1,growth at 10 µM,[1],94%
same,inhibition of growth at 10 µM,[4],< 10%
same,inhibition of growth at 10 µM,[5],11.8%
same,inhibition of growth at 10 µM,[6],< 10%
same,inhibition of growth at 10 µM,[7],< 10%
same,inhibition of growth at 10 µM,[8],< 10%
same,inhibition of growth at 10 µM,[9],10.7%
same,inhibition of growth at 10 µM,[10],11.6%
same,growth at 10 µM,[11],96.4%
same,growth at 10 µM,[12],99.7%
same,growth at 10 µM,[13],89.5%
same,growth at 10 µM,[14],104%
same,growth at 10 µM,[15],93.7%
same,growth at 10 µM,[16],101%
same,growth at 10 µM,[17],88.2%
same,growth at 10 µM,[18],106%
same,growth at 10 µM,[19],102%
same,growth at 10 µM,[20],109%
same,growth at 10 µM,[21],109%
same,growth at 10 µM,[22],95.3%
same,growth at 10 µM,[23],102%
same,growth at 10 µM,[24],104%

# — ChEMBL document CHEMBL2413072, “Synthesis and in vitro anticancer studies of novel C-2 arylidene congeners of lantadenes” (2013)
